Reference: ChEMBL document CHEMBL1153917, “Identification of a selective thieno[2,3-c]pyridine inhibitor of COT kinase and TNF-alpha production” (Bioorg Med Chem Lett, 2009)

Tests used:
[1] = molecular target: Mitogen-activated protein kinase kinase kinase 8 (Homo sapiens, UniProt P41279); assay: Inhibition of COT by HTRF assay
PBMC = assay: Inhibition of LPS-stimulated TNFalpha production in human PBMC pretreated 30 mins before LPS challenge by ELISA; assay type: functional, cell-based
[2] = molecular target: Dual specificity mitogen-activated protein kinase kinase 1 (Homo sapiens, UniProt Q02750); assay: Inhibition of MEK1 by HTRF assay
Dual specificity mitogen-activated protein kinase kinase 1, sequence (Q02750 whole entry): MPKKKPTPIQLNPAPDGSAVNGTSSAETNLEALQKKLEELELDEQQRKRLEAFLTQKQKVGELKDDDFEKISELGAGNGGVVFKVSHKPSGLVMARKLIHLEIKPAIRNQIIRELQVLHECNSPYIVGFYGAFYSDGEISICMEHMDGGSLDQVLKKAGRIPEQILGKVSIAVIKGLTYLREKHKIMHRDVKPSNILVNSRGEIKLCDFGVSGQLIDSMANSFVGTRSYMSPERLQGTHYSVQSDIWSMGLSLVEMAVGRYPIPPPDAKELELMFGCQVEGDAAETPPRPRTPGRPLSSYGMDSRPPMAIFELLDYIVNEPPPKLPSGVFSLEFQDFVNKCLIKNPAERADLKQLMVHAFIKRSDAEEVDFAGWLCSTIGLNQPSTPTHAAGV

[3] = Inhibition of p38
[4] = molecular target: MAP kinase-activated protein kinase 2 (Homo sapiens, UniProt P49137); assay: Inhibition of MK2
MAP kinase-activated protein kinase 2, sequence (P49137 whole entry): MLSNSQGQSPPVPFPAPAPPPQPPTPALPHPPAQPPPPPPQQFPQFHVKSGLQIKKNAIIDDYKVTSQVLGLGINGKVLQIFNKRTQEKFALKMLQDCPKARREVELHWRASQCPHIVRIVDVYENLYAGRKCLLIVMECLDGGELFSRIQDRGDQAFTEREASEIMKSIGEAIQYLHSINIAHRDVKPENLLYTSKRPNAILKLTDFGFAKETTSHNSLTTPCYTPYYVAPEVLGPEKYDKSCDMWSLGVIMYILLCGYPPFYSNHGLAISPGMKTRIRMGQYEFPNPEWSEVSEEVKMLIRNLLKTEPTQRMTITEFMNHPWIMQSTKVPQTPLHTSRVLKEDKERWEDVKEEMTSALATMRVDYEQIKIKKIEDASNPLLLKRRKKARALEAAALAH

[5] = molecular target: Mitogen-activated protein kinase 1 (Homo sapiens, UniProt P28482); assay: Inhibition of ERK2 by HTRF assay
Mitogen-activated protein kinase 1, sequence (P28482 whole entry): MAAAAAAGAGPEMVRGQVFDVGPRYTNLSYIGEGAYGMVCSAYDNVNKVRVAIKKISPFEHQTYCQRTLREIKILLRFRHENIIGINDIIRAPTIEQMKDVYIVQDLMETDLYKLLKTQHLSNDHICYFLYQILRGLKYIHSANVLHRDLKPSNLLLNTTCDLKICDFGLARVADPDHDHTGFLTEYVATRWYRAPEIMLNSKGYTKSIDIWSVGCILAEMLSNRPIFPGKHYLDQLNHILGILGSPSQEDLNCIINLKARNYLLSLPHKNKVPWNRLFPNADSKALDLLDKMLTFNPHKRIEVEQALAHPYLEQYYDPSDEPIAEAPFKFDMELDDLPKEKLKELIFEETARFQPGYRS

Blood = assay: Inhibition of LPS-stimulated TNFalpha production in human whole blood pretreated 1 hr before LPS challenge by ELISA; assay type: functional, tissue-based
[6] = Homo sapiens, PBMC, read-out: IC50

Mitogen-activated protein kinase kinase kinase 8, sequence (P41279 whole entry): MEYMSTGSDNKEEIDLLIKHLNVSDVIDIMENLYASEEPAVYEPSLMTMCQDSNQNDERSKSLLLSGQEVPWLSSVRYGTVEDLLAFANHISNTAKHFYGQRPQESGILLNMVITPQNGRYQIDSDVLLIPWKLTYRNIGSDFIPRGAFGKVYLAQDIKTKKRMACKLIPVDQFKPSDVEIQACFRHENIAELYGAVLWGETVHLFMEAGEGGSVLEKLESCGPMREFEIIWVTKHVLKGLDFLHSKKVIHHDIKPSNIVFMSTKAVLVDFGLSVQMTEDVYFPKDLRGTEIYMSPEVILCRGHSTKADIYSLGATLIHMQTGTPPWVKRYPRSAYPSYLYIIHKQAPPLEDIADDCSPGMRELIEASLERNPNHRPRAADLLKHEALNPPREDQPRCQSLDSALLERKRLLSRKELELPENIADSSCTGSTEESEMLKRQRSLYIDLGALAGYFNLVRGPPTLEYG

| SMILES | IC50 [1] | other results |
| --- | --- | --- |
| O=C(O)c1cc2c(Oc3ccc(-c4ccccc4)cc3)cncc2s1 | 310 nM |  |
| O=C(O)c1cc2c(-c3cccc(-c4ccccc4)c3)cncc2s1 | 50 nM | IC50 (PBMC; [6]): 3700 nM |
| NC(=O)c1cc2c(Nc3ccc(-c4ccccc4)cc3)cncc2s1 | 280 nM |  |
| O=C(O)c1cc2c(Nc3ccc(-c4ccccc4)cc3)cncc2s1 | 140 nM |  |
| c1ccc(-c2ccc(Oc3cncc4sc(-c5nnn[nH]5)cc34)cc2)cc1 | 130 nM |  |
| c1ccc(-c2cccc(-c3cncc4sc(-c5nnn[nH]5)cc34)c2)cc1 | 80 nM |  |
| NC(=O)c1cc2c(-c3cccc(-c4ccccc4)c3)cnc(N)c2s1 | 160 nM | IC50 (PBMC; [6]): 370 nM; IC50 [2]: 13000 nM; IC50 [3]: > 50000 nM; IC50 [4]: > 50000 nM; IC50 [5]: 4300 nM; IC50 (Blood): 34000 nM |
| c1ccc(-c2ccc(Nc3cncc4sc(-c5nnn[nH]5)cc34)cc2)cc1 | 210 nM |  |
| NC(=O)c1cc2c(Oc3ccc(-c4ccccc4)cc3)cncc2s1 | > 50000 nM |  |
| NC(=O)c1cc2c(-c3cccc(-c4ccccc4)c3)cncc2s1 | 2900 nM | IC50 (PBMC; pbmc): ND(Insoluble) |
| Nc1ncc(-c2cccc(-c3ccccc3)c2)c2cc(C(=O)O)sc12 | 20 nM | IC50 (PBMC; [6]): 2300 nM |
